ChEMBL document CHEMBL5252509, “In depth analysis of kinase cross screening data to identify chemical starting points for inhibition of the Nek family of kinases” (Medchemcomm, 2018)

Legend:
[1] = biological target: Fibroblast growth factor receptor 3 (Homo sapiens) (UniProt P22607); test: Inhibition of FGFR3 (unknown origin) at 1 uM relative to control
[2] = biological target: T1, Serine/threonine-protein kinase Nek10 (Homo sapiens) (UniProt Q6ZWH5); test: Inhibition of NEK10 (unknown origin) at 1 uM relative to control
T1 sequence (whole entry): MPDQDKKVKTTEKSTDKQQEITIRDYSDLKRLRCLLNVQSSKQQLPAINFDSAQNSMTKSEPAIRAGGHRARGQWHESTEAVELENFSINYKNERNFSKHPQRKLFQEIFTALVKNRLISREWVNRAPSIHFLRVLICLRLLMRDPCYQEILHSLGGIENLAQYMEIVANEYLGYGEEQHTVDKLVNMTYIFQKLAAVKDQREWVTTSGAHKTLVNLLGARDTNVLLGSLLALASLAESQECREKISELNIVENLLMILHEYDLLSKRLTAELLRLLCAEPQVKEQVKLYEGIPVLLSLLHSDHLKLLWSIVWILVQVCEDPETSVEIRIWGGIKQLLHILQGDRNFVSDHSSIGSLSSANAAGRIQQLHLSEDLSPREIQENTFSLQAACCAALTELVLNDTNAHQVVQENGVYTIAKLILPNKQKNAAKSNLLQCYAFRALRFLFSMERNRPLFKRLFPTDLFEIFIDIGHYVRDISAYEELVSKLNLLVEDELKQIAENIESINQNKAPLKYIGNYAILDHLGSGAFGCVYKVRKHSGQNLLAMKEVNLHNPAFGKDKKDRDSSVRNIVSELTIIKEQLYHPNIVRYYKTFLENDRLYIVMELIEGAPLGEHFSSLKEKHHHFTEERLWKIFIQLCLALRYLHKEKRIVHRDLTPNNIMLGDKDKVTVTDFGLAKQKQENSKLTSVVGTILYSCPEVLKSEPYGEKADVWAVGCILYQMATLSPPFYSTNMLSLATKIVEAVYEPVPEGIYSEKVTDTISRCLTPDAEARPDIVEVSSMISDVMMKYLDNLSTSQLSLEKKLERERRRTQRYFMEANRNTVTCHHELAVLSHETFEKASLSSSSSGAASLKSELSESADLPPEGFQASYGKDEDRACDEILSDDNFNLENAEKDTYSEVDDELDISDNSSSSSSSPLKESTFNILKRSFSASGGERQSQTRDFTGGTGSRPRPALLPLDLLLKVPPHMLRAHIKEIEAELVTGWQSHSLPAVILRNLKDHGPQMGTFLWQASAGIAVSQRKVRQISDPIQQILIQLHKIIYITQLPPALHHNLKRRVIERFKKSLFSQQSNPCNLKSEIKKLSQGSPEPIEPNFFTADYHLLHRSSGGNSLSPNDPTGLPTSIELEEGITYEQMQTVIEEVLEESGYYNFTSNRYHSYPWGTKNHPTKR

[3] = biological target: T2, Mitogen-activated protein kinase kinase kinase 19 (Homo sapiens) (UniProt Q56UN5); test: Inhibition of YSK4 (unknown origin) at 1 uM relative to control
T2 sequence (whole entry): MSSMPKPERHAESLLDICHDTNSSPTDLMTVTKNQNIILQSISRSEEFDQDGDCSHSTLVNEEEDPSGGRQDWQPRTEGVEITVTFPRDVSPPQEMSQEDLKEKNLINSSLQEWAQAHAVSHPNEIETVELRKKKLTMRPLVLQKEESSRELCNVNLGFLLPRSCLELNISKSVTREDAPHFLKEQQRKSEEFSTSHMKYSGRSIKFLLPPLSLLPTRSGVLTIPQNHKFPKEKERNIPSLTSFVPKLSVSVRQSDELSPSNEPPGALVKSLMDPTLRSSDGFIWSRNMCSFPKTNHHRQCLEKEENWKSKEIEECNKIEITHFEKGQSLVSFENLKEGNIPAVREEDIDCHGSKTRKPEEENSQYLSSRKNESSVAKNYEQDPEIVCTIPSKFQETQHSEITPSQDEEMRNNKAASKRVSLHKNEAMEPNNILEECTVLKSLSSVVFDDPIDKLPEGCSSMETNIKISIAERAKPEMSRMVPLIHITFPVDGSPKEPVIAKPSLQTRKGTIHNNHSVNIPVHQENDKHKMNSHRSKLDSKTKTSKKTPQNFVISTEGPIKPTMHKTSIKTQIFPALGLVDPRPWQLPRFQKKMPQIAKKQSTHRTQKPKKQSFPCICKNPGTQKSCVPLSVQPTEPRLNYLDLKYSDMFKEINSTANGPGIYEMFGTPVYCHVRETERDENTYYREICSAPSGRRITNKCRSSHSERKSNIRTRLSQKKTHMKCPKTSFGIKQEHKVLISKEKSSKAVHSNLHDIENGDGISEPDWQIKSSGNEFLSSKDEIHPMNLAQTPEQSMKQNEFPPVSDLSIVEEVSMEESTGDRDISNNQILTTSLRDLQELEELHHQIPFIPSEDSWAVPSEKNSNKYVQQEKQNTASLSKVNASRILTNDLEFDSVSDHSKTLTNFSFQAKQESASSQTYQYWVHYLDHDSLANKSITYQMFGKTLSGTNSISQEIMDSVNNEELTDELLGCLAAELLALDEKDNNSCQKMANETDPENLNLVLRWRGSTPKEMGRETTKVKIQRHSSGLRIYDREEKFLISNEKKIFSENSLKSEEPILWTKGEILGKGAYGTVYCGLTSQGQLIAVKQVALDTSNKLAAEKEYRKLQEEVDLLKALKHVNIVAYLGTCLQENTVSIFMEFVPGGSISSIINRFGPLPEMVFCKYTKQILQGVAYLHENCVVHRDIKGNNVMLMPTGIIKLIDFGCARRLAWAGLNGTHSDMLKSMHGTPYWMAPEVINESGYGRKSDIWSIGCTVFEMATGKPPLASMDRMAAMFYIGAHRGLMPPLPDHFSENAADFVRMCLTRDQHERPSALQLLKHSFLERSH

[4] = biological target: T3, Cytoplasmic tyrosine-protein kinase BMX (Homo sapiens) (UniProt P51813); test: Inhibition of BMX (unknown origin) at 1 uM relative to control
T3 sequence (whole entry): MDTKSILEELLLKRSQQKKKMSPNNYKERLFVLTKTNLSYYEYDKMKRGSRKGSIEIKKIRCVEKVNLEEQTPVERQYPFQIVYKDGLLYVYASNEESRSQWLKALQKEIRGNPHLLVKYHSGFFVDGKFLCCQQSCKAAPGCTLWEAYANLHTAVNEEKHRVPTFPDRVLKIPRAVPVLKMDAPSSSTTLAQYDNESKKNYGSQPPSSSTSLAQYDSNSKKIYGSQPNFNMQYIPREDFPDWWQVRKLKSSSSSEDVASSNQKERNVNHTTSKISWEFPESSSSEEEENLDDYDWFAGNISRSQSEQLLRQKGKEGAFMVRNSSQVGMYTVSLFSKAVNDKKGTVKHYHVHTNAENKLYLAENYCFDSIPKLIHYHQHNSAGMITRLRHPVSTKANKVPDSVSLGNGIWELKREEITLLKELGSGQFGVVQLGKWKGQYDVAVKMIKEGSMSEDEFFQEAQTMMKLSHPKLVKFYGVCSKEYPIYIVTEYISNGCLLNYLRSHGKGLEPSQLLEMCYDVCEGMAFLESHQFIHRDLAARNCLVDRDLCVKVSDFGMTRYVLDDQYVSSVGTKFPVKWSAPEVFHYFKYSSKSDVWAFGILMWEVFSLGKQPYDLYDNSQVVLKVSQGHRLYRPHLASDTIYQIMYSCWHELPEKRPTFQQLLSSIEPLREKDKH

[5] = biological target: Angiopoietin-1 receptor (Homo sapiens) (UniProt Q02763); test: Inhibition of TIE2 (unknown origin) at 1 uM relative to control
[6] = biological target: T4, Serine/threonine-protein kinase Nek2 (Homo sapiens) (UniProt P51955); test: Inhibition of NEK2 (unknown origin) at 1 uM relative to control
T4 sequence (whole entry): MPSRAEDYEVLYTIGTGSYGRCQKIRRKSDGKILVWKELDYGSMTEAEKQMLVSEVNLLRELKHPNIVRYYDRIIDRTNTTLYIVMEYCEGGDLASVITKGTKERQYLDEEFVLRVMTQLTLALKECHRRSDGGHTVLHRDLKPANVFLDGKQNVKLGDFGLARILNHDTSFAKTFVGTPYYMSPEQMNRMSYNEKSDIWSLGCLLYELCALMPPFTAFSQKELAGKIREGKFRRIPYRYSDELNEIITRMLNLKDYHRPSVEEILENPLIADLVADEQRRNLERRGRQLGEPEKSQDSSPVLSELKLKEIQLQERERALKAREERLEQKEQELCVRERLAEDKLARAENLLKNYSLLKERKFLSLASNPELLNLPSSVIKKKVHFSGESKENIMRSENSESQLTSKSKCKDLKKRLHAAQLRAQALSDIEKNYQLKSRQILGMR

[7] = biological target: T5, Serine/threonine-protein kinase Nek5 (Homo sapiens) (UniProt Q6P3R8); test: Inhibition of NEK5 (unknown origin) at 1 uM relative to control
T5 sequence (whole entry): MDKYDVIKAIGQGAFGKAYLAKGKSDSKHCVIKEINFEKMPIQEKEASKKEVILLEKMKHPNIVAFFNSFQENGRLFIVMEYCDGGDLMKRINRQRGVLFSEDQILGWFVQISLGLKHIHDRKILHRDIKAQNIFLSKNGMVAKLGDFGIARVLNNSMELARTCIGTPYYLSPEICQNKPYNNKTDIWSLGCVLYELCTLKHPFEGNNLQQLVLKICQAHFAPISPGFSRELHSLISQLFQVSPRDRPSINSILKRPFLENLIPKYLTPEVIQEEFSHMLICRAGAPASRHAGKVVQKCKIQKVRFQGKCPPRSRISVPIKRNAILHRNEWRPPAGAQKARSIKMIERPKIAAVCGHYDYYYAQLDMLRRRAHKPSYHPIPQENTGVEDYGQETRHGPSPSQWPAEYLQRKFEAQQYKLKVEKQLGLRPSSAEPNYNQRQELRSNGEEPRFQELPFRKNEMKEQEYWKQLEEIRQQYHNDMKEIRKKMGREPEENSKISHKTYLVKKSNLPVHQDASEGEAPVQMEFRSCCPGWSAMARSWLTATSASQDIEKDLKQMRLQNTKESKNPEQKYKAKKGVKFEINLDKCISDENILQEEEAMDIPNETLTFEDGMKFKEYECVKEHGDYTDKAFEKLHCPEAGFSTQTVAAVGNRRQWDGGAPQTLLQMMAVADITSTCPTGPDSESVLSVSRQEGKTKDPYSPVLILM

[8] = biological target: Serine/threonine-protein kinase Nek6 (Homo sapiens) (UniProt Q9HC98); test: Inhibition of NEK6 (unknown origin) at 1 uM relative to control
[9] = biological target: Serine/threonine-protein kinase Nek7 (Homo sapiens) (UniProt Q8TDX7); test: Inhibition of NEK7 (unknown origin) at 1 uM relative to control
[10] = biological target: T6, Serine/threonine-protein kinase Nek3 (Homo sapiens) (UniProt P51956); test: Inhibition of NEK3 (unknown origin) at 1 uM relative to control
T6 sequence (whole entry): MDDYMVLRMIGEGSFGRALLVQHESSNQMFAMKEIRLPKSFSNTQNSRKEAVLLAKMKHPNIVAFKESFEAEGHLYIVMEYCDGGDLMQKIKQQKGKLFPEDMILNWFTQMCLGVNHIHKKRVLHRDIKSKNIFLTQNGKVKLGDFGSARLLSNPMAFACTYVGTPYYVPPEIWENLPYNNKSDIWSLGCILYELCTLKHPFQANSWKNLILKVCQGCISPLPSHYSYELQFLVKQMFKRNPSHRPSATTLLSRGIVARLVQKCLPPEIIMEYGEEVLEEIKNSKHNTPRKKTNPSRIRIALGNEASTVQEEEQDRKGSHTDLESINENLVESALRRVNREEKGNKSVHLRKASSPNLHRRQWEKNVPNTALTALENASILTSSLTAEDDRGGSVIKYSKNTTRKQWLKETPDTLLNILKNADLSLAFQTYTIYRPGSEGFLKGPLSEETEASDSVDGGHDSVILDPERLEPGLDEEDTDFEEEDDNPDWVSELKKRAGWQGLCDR

[11] = biological target: T7, Serine/threonine-protein kinase Nek11 (Homo sapiens) (UniProt Q8NG66); test: Inhibition of NEK11 (unknown origin) at 1 uM relative to control
T7 sequence (whole entry): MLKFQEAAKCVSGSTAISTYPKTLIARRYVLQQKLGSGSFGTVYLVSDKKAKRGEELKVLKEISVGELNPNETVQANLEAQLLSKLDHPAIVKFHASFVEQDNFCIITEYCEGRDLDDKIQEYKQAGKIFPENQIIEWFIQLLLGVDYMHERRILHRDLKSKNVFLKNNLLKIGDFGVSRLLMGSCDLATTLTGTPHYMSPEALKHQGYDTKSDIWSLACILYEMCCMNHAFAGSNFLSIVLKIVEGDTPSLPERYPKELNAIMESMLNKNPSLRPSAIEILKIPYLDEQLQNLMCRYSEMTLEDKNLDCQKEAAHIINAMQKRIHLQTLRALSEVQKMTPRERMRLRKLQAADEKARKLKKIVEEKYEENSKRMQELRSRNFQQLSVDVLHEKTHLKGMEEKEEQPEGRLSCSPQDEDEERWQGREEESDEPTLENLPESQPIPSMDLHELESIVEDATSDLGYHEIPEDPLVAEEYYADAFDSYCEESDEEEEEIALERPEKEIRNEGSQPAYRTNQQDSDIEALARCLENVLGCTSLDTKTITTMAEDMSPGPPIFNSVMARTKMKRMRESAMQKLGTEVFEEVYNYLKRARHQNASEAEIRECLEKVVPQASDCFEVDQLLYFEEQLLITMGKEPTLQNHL

Sequence of Fibroblast growth factor receptor 3 (Homo sapiens) (P22607 23-806 limits assumed): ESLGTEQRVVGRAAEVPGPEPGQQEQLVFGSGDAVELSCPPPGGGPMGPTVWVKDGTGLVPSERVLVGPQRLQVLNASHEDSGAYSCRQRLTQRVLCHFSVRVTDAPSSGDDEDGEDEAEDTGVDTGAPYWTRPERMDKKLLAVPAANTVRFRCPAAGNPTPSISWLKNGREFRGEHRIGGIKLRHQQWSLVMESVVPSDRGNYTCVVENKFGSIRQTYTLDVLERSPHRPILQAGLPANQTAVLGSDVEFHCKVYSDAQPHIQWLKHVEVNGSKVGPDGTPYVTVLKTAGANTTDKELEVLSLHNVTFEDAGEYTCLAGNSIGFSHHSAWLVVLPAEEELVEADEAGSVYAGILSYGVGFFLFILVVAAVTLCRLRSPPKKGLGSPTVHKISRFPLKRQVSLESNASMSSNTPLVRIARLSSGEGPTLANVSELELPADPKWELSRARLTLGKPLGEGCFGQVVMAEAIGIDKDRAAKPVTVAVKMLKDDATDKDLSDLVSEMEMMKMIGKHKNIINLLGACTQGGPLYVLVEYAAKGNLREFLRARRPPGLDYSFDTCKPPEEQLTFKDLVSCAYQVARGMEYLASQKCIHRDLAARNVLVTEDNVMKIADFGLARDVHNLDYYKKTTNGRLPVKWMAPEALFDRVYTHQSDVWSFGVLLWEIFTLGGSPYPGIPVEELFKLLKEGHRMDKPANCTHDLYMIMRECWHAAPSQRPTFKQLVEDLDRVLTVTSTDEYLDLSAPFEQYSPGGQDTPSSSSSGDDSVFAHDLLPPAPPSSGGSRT
Sequence of Angiopoietin-1 receptor (Homo sapiens) (Q02763 whole entry): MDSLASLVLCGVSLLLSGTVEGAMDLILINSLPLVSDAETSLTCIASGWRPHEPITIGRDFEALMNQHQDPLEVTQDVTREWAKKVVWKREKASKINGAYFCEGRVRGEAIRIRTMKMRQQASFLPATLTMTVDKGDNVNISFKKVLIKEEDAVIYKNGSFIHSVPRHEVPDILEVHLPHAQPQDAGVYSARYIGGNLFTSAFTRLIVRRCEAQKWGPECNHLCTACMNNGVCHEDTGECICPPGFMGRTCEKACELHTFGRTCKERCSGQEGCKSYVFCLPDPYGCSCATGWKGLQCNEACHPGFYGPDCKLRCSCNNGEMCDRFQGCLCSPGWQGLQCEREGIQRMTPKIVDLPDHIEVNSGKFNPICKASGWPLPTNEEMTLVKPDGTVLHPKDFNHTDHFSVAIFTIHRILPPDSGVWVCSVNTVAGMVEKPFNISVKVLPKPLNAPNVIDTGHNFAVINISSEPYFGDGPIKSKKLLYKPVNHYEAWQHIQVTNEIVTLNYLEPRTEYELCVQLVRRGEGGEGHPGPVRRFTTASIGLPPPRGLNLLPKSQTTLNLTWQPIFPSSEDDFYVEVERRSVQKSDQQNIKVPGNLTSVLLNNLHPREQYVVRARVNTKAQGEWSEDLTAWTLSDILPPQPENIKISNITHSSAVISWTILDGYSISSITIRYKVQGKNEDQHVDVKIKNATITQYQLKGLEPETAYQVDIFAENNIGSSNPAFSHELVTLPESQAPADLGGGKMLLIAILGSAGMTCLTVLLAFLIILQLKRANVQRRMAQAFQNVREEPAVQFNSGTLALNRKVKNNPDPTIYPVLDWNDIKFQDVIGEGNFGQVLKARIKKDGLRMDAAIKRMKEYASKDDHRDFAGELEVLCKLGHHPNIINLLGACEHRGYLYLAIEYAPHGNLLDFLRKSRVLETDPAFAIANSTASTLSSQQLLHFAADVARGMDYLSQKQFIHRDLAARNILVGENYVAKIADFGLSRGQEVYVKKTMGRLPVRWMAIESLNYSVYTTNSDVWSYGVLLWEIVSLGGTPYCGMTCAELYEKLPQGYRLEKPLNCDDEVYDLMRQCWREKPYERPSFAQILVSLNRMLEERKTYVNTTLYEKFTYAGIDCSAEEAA
Sequence of Serine/threonine-protein kinase Nek7 (Homo sapiens) (Q8TDX7 whole entry, looked up): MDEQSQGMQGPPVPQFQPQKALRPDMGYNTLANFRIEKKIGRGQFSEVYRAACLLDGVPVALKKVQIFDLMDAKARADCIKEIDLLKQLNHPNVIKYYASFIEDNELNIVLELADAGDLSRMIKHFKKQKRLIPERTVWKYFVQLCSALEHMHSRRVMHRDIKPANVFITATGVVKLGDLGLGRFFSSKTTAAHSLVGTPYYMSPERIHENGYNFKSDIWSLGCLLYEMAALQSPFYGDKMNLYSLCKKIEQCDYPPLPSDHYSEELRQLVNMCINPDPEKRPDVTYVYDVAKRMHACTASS
Sequence of Serine/threonine-protein kinase Nek6 (Homo sapiens) (Q9HC98 whole entry): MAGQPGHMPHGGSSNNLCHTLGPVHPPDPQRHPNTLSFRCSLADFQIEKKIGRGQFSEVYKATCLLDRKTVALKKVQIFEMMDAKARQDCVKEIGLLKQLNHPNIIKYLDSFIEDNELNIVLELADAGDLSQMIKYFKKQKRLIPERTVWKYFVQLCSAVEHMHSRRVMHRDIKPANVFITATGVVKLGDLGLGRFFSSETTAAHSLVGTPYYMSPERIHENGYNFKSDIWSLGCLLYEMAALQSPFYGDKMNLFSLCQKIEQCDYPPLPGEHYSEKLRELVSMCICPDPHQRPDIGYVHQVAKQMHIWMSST

Row | Compound | inhibition [1] | inhibition [2] | inhibition [3] | inhibition [4] | inhibition [5] | inhibition [6] | inhibition [7] | inhibition [8] | inhibition [9] | inhibition [10] | inhibition [11]
1 | Cc1cc2cn[nH]c2cc1-c1cccc2c(N)c(C(N)=O)nnc12 | 0% | 86% | 71% | 83% | 31% |  |  |  |  |  | 
2 | CC(C)(C)c1nc(-c2cccc(NS(=O)(=O)c3c(F)cccc3F)c2F)c(-c2ccnc(N)n2)s1 |  | 56% |  |  |  | 7% | 75% | 0.3% | 1.6% | 100% | 0.2%
3 | CC[C@@H]1C(=O)N(C)c2cnc(Nc3ccc(C(=O)NC4CCN(C)CC4)cc3OC)nc2N1C1CCCC1 |  |  |  |  |  | 72% |  |  |  |  | 
4 | NC(=O)c1nnc2ccccc2c1N | 90% | 85% | 88% | 90.1% | 98.7% |  |  |  |  |  | 
5 | Cn1cc(-c2cccc3c(N)c(C(N)=O)nnc23)cn1 | 12% | 48% | 94.4% | 15% | 1% |  |  |  |  |  | 
